For one molecule, IC50 results are on record in paper PMC11818871, “Identification of Fungal Metabolite Gliotoxin as a Potent Inhibitor Against Bacterial O-Acetylserine Sulfhydrylase CysK and CysM” (International Journal of Molecular Sciences, 2025).

The IC50 is the midpoint of a concentration-inhibition curve.

Experiment [1] has as its target CysM (O-acetylserine sulfhydrylase) (Salmonella enterica, UniProt P29848). As to the kind of experiment: recombinant enzyme, H2S consumption by HSip-1 fluorescence; confirmed by LC-MS/MS of cysteine production. Type of experiment: biochemical.
The target of experiment [2] is CysK (O-acetylserine sulfhydrylase) (Salmonella enterica, UniProt P0A1E3). The experiment is described as above. In kind it is biochemical.
Chain of CysK (O-acetylserine sulfhydrylase) (P0A1E3 2-323): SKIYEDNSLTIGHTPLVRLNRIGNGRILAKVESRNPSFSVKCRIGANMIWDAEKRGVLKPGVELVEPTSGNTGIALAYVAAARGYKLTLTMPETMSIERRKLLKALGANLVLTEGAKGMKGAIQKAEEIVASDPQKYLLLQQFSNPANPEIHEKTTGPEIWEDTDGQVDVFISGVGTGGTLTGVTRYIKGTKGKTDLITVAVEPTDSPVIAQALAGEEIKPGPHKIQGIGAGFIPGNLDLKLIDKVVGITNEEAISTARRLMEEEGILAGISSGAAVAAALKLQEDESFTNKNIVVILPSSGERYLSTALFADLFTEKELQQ

Chain of CysM (O-acetylserine sulfhydrylase) (P29848 whole entry): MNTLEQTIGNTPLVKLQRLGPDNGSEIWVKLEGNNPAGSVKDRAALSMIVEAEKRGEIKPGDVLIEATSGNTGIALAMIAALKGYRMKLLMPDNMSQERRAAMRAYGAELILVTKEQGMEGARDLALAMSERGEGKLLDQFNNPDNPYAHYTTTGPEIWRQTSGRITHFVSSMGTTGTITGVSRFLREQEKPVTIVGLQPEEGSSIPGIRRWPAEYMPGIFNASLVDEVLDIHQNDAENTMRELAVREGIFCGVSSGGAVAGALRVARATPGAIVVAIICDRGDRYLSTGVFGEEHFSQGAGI

Consider `CN1C(=O)[C@]23CC4=CC=C[C@H](O)[C@H]4N2C(=O)[C@@]1(CO)SS3` [compound 1, gliotoxin], for which the IC50 in experiment [1] and in experiment [2] was approximately 3 µM throughout.
